Experimental data published in patent US20240325364A1, “COMPOSITIONS FOR USE IN THE TREATMENT OF METABOLIC SYNDROME” (Nottingham Trent University, priority 2021, published 2024).
“Also recorded” adds a separate entry of the source.

Tests used:
[1] = system: C2C12 skeletal muscle cells; test: Reactive species scavenging in C2C12 cells (DCFDA fluorescence); format: cell-based; settings: C2C12 cells in GLT RPMI-1640 medium 5 days, 100 μM compound
Protocol: C2C12 muscle cell myotubes were cultured for 5 days in standard RPMI-1640 tissue culture media or GLT RPMI-1640 media. Corresponding media were independently supplemented with 100 μM of a compound (M4, M14, M8, M28, and M38 investigated). Non-supplemented standard and GLT RPMI-1640 media were also retained as controls. Cells were thereafter washed 3 times in KRB and 20 μM 2′,7′-dichlorofluorescein diacetate (DCFDA), a cell permeant fluorogenic dye that measures hydroxyl, peroxyl and other ROS, was loaded for 1 h. Reactive species detection was measured via fluorescence, with excitation at 495 nm and emission at 530 nm.

High fat-fed mice = test: Effect on body weight in an in vivo model of obesity; settings: high fat diet mice, 45 mg/kg body weight/day via drinking water, 10 weeks
Protocol: High fat-fed mice were used as an animal model of obesity. The body weights of the mice were monitored over a period of 10 weeks. The following three sets of mice were used in the study: • Non-high fat-fed mice that were administered a normal diet. • High fat-fed mice that were administered a high fat diet. • High fat-fed mice that were administered a high fat diet alongside 45 mg/kg body weight/day of compound M8, which was administered via drinking water.
High fat-fed mice were fed the following high fat diet from Research Diets: (60% fat; D12492). Non-high fat-fed mice were used as a control and were fed the following low fat diet from Research Diets: (10% fat, D12450B). The body weights of the mice were measured throughout.

[2] = system: C2C12 skeletal muscle cells; test: Glucose uptake (2-deoxy glucose) in C2C12 skeletal muscle cells; format: cell-based; settings: C2C12 cells 5 days in GLT DMEM medium with 100 μM compound; 100 nM insulin 1 h
Protocol: C2C12 skeletal muscle cell myotubes were cultured for 5 days in standard DMEM tissue culture media or GLT DMEM media. The media were either used without further supplementation (used as controls) or were independently supplemented with 100 μM of a compound (M4, M8, M14, M28, and M38 investigated). Myotubes were then serum-starved overnight in DMEM supplemented with 5 mM glucose, and thereafter incubated for 1 h in glucose-free DMEM or in glucose-free DMEM supplemented with 100 nM insulin stimulant. The media were thereafter replaced with phosphate buffered saline (PBS) containing 0.125 mM 2-deoxy glucose (2-DG). Glucose uptake reactions were conducted for 30 min, and then terminated by addition of stop buffer (0.4 M HCl+2% dodecyl trimethyl ammonium bromide). 2-deoxyglucose-6-phosphate (2DG6P) detection reagent was applied, and data were acquired using a CLARIOStar luminometer (BMG Labtech, Ortenberg, Germany).

[3] = system: C2C12 skeletal muscle cells; test: Toxicity testing: C2C12 cell viability (Calcein AM fluorescence); format: cell-based; settings: C2C12 myotubes cultured 5 days in GLT RPMI-1640 medium (28 mM glucose, 200 μM palmitic acid, 200 μM oleic acid) with 100 μM compound
Protocol: C2C12 muscle cell myotubes were cultured for 5 days in the following […] culture media: a control RPMI-1640 medium; glucolipotoxic (GLT) RPMI-1640 medium (28 mM glucose, 200 μM palmitic acid and 200 μM oleic acid) supplemented with 100 μM of M4; GLT RPMI-1640 medium supplemented with 100 µM of M8; GLT RPMI-1640 medium supplemented with 100 μM of M14; GLT RPMI-1640 medium supplemented with 100 μM of M28; and GLT RPMI-1640 medium supplemented with 100 μM of M38. Following culture, media were aspirated and cells washed 3 times in Krebs-Ringer buffer (KRB). A final concentration of […] Calcein AM Cell Viability Dye (ThermoFischer) in KRB was loaded for 1 h before washing again with KRB. Cell viability was measured via fluorescence, with excitation and emission at 490 nm and 520 nm, respectively.

| SMILES | intracellular reactive species (% change relative to control) [1] | toxic effects on the animals (High fat-fed mice) | body weight (High fat-fed mice; vs high fat-fed mice without compound, 45 mg/kg/day) | insulin-stimulated glucose uptake per total cellular protein [2] | cell viability (% change relative to control) [3] |
| --- | --- | --- | --- | --- | --- |
| CNCc1ccc(-c2ccco2)nc1 [M8, 6-(2-furanyl)-N-methyl-3-pyridinemethanamine] | reduces GLT-associated reactive species levels | no toxic effects on the animals | significantly reduces the body weight; also recorded: significant reduction of body weight | reverse glucolipotoxic inhibition of insulin-stimulated glucose uptake | none of the tested compounds (M4, M8, M14, M28, and M38) reduce C2C12 skeletal muscle cell viability; also recorded: non-toxic to the cells |
| CNCc1cc(-c2ccccc2)no1 [M14, 5-[(methylamino)methyl]-3-phenylisoxazole] | reduces GLT-associated reactive species levels |  |  | reverse glucolipotoxic inhibition of insulin-stimulated glucose uptake | none of the tested compounds (M4, M8, M14, M28, and M38) reduce C2C12 skeletal muscle cell viability; also recorded: non-toxic to the cells |
| OCc1ccc(Cn2ccnc2)cc1 [M38, [4-(1H-imidazol-1-ylmethyl)phenyl]methanol] | reduces GLT-associated reactive species levels |  |  | reverse glucolipotoxic inhibition of insulin-stimulated glucose uptake | none of the tested compounds (M4, M8, M14, M28, and M38) reduce C2C12 skeletal muscle cell viability; also recorded: non-toxic to the cells |
| NCc1cc(-c2ccccc2)no1 [M28, (3-phenyl-5-isoxazolyl)methanamine] | reduces GLT-associated reactive species levels |  |  | reverse glucolipotoxic inhibition of insulin-stimulated glucose uptake | none of the tested compounds (M4, M8, M14, M28, and M38) reduce C2C12 skeletal muscle cell viability; also recorded: non-toxic to the cells |
| FC(F)(F)c1ccc(-n2ccnc2)nc1 [M4, 2-(1H-imidazol-1-yl)-5-(trifluoromethyl)pyridine] | reduces GLT-associated reactive species levels |  |  | reverse glucolipotoxic inhibition of insulin-stimulated glucose uptake | none of the tested compounds (M4, M8, M14, M28, and M38) reduce C2C12 skeletal muscle cell viability; also recorded: non-toxic to the cells |
